Results from paper PMC6151383 (Molecules : A Journal of Synthetic Chemistry and Natural …, 2017).
Like-named read-outs stand apart in the source and are kept apart here.

Tests used:
[1] = tested on: Staphylococcus epidermidis H 6966/08; assay: Antibacterial microdilution broth MIC, S. epidermidis; assay type: cell-based; conditions: Staphylococcus epidermidis
M. kansasii 6509/96 = assay: In vitro antimycobacterial MIC, M. kansasii clinical isolate; assay type: cell-based; conditions: Mycobacterium kansasii
[2] = tested on: Mycobacterium kansasii 235/80; assay: In vitro antimycobacterial MIC, M. kansasii 235/80; assay type: cell-based
[3] = tested on: Escherichia coli CCM 4517; assay: Antibacterial microdilution broth MIC, E. coli; assay type: cell-based; conditions: Escherichia coli, CCM4517; 48 h incubation; read-out: MIC EC 48 h
[4] = tested on: Trichophyton interdigitale 445; assay: Antifungal microdilution broth MIC, T. interdigitale; assay type: cell-based
[5] = tested on: Pseudomonas aeruginosa CCM 1961; assay: Antibacterial microdilution broth MIC, P. aeruginosa; assay type: cell-based; conditions: Pseudomonas aeruginosa, CCM1961; 48 h incubation; read-out: MIC PA 48 h
[6] = tested on: Staphylococcus aureus CCM 4516/08; assay: Antibacterial microdilution broth MIC, S. aureus; assay type: cell-based; conditions: Staphylococcus aureus, CCM4516; 48 h incubation; read-out: MIC SA 48 h
[7] = tested on: Candida albicans ATCC 44859; assay: Antifungal microdilution broth MIC, C. albicans; assay type: cell-based
[8] = tested on: Mycobacterium avium 330/88; assay: In vitro antimycobacterial MIC, M. avium; assay type: cell-based
[9] = tested on: Klebsiella pneumoniae D 11750/08
[10] = tested on: Aspergillus fumigatus 231; assay: Antifungal microdilution broth MIC, A. fumigatus; assay type: cell-based; conditions: Aspergillus fumigatus, 231; 48 h incubation; read-out: MIC AF 48 h
[11] = tested on: ESBL-positive Klebsiella pneumoniae J 14368/08
[12] = tested on: Mycobacterium tuberculosis 331/88 (H37Rv); assay: In vitro antimycobacterial MIC, M. tuberculosis; assay type: cell-based
Candida krusei E28 = assay: Antifungal microdilution broth MIC, C. krusei; assay type: cell-based; conditions: Pichia kudriavzevii
Trichosporon asahii 1188 = assay: Antifungal microdilution broth MIC, T. asahii; assay type: cell-based
Candida tropicalis 156 = assay: Antifungal microdilution broth MIC, C. tropicalis; assay type: cell-based
Candida glabrata 20/I = assay: Antifungal microdilution broth MIC, C. glabrata; assay type: cell-based; conditions: Nakaseomyces glabratus
[13] = tested on: Lichtheimia corymbifera 272; assay: Antifungal microdilution broth MIC, L. corymbifera; assay type: cell-based; conditions: Lichtheimia corymbifera, 272; 48 h incubation; read-out: MIC LC 48 h
[14] = tested on: Enterococcus faecalis J 14365/08; assay: Antibacterial microdilution broth MIC, E. faecalis; assay type: cell-based; conditions: Enterococcus faecalis, J14365/08; 48 h incubation; read-out: MIC EF 48 h
[15] = H6966/08, 48 h incubation, read-out: MIC SE 48 h
[16] = 6509/96, 168 h, 7 d incubation, read-out: MIC M. kansasii 6509/96 7 d
[17] = 6509/96, 336 h, 14 d incubation, read-out: MIC M. kansasii 6509/96 14 d
[18] = 6509/96, 504 h, 21 d incubation, read-out: MIC M. kansasii 6509/96 21 d
[19] = 235/80, 168 h, 7 d incubation, read-out: MIC M. kansasii 235/80 7 d
[20] = 235/80, 336 h, 14 d incubation, read-out: MIC M. kansasii 235/80 14 d
[21] = 235/80, 504 h, 21 d incubation, read-out: MIC M. kansasii 235/80 21 d
[22] = ATCC44859, 24 h, read-out: MIC CA 24 h
[23] = ATCC44859, 48 h, read-out: MIC CA 48 h
[24] = 330/88, 336 h, 14 d incubation, read-out: MIC M. avium 330/88 14 d
[25] = 330/88, 504 h, 21 d incubation, read-out: MIC M. avium 330/88 21 d
[26] = 336 h, 14 d incubation, read-out: MIC Mtb. 331/88 14 d
[27] = 504 h, 21 d incubation, read-out: MIC Mtb. 331/88 21 d
[28] = E28, 48 h incubation, read-out: MIC CK 48 h
[29] = Trichosporon asahii, 1188, 24 h, read-out: MIC TA 24 h
[30] = Trichosporon asahii, 1188, 48 h, read-out: MIC TA 48 h
[31] = Candida tropicalis, 156, 48 h incubation, read-out: MIC CT 48 h
[32] = Trichophyton interdigitale, 445, 72 h incubation, read-out: MIC TI 72 h
[33] = Trichophyton interdigitale, 445, 120 h incubation, read-out: MIC TI 120 h
[34] = ATCC44859, 48 h incubation, read-out: MIC CA 48 h
[35] = Trichosporon asahii, 1188, 48 h incubation, read-out: MIC TA 48 h
[36] = 48 h incubation, read-out: MIC CG 48 h

O=S(=O)(Nc1ncccn1)c1ccc(N=Cc2cc(Br)ccc2O)cc1 [Compound 2d, 4-[(5-Bromo-2-hydroxybenzylidene)amino]-N-(pyrimidin-2-yl)benzenesulfonamide]
250 µM: MIC [1, 15] | MIC [10] | MIC (Candida krusei E28; [28]) | MIC (Candida tropicalis 156; [31])
500 µM: MIC [3] | MIC [5] | MIC [6] | MIC KP 24 h [9] | MIC KP 48 h [9] | MIC KP-E 24 h [11] | MIC KP-E 48 h [11]
125 µM: MIC [7, 22] | MIC [7, 23] | MIC [8, 24] | MIC [8, 25]
32 µM: MIC (M. kansasii 6509/96; [16]) | MIC (M. kansasii 6509/96; [17]) | MIC [2, 19] | MIC [12, 27]
62.5 µM: MIC (M. kansasii 6509/96; [18]) | MIC [2, 20] | MIC [2, 21] | MIC ([4]; Trichophyton interdigitale, 445, 72 h, read-out: MIC TI 72 h) | MIC ([4]; Trichophyton interdigitale, 445, 120 h, read-out: MIC TI 120 h) | MIC (Trichosporon asahii 1188; [29]) | MIC (Trichosporon asahii 1188; [30]) | MIC (Candida glabrata 20/I; 24 h, read-out: MIC CG 24 h) | MIC (Candida glabrata 20/I; 48 h, read-out: MIC CG 48 h)
> 500 µM: MIC [13] | MIC [14]
16 µM: MIC [12, 26]

O=S(=O)(Nc1ncccn1)c1ccc(N=Cc2cc(I)ccc2O)cc1 [Compound 2e, 4-[(2-Hydroxy-5-iodobenzylidene)amino]-N-(pyrimidin-2-yl)benzenesulfonamide]
32 µM: MIC (M. kansasii 6509/96; [16]) | MIC (M. kansasii 6509/96; [17]) | MIC [2, 19]
31.2 µM: MIC [4, 32] | MIC [4, 33]
62.5 µM: MIC ([1]; H6966/08, 24 h, read-out: MIC SE 24 h) | MIC (M. kansasii 6509/96; [18]) | MIC [2, 20] | MIC [7, 22] | MIC [12, 26] | MIC (Candida krusei E28; E28, 24 h, read-out: MIC CK 24 h) | MIC (Candida glabrata 20/I; 24 h, read-out: MIC CG 24 h) | MIC (Candida glabrata 20/I; 48 h, read-out: MIC CG 48 h)
250 µM: MIC [3] | MIC [6] | MIC [8, 25] | MIC [10]
500 µM: MIC [5] | MIC KP 24 h [9] | MIC KP 48 h [9] | MIC KP-E 24 h [11] | MIC KP-E 48 h [11] | MIC [14]
> 500 µM: MIC [13]
125 µM: MIC ([1]; H6966/08, 48 h, read-out: MIC SE 48 h) | MIC [2, 21] | MIC [7, 23] | MIC [8, 24] | MIC [12, 27] | MIC (Candida krusei E28; E28, 48 h, read-out: MIC CK 48 h) | MIC (Trichosporon asahii 1188; [29]) | MIC (Trichosporon asahii 1188; [30]) | MIC (Candida tropicalis 156; Candida tropicalis, 156, 24 h, read-out: MIC CT 24 h) | MIC (Candida tropicalis 156; Candida tropicalis, 156, 48 h, read-out: MIC CT 48 h)

O=[N+]([O-])c1ccc(O)c(C=Nc2ccc(S(=O)(=O)Nc3ncccn3)cc2)c1 [Compound 2f, 4-[(2-Hydroxy-5-nitrobenzylidene)amino]-N-(pyrimidin-2-yl)benzenesulfonamide]
125 µM: MIC (M. kansasii 6509/96; [16]) | MIC [2, 19]
1000 µM: MIC [8, 25]
500 µM: MIC [1, 15] | MIC [2, 21] | MIC [5] | MIC [7, 34] | MIC [8, 24] | MIC KP-E 24 h [11] | MIC KP-E 48 h [11] | MIC [13] | MIC [14]
>500 µM: MIC KP 24 h [9] | MIC KP 48 h [9]
62.5 µM: MIC [4, 32] | MIC [4, 33] | MIC ([4]; Trichophyton interdigitale, 445, incubation time not given, read-out: MIC for T. interdigitale)
250 µM: MIC (M. kansasii 6509/96; [17]) | MIC (M. kansasii 6509/96; [18]) | MIC [2, 20] | MIC [3] | MIC [6] | MIC [12, 26] | MIC [12, 27] | MIC (Candida glabrata 20/I; [36])
> 500 µM: MIC [10] | MIC (Candida krusei E28; [28]) | MIC (Trichosporon asahii 1188; [35]) | MIC (Candida tropicalis 156; [31])

OC(Cn1cncn1)(Cn1cncn1)c1ccc(F)cc1F [FLU, fluconazole, reference compound]
500 µM: MIC (Trichosporon asahii 1188; [35]) | MIC (Candida glabrata 20/I; [36])
> 500 µM: MIC [10] | MIC (Candida tropicalis 156; [31]) | MIC [13]
0.24 µM: MIC [7, 34]
250 µM: MIC (Candida krusei E28; [28])
125 µM: MIC [4, 33]
7.81 µM: MIC [4, 32]

NNC(=O)c1ccncc1 [INH, isoniazid, reference compound]
1 µM: MIC [12, 27]
> 250 µM: MIC [2, 19] | MIC [2, 20] | MIC [2, 21] | MIC [8, 24] | MIC [8, 25]
0.5 µM: MIC [12, 26]
8 µM: MIC (M. kansasii 6509/96; [16]) | MIC (M. kansasii 6509/96; [17]) | MIC (M. kansasii 6509/96; [18])
